Measurements from article PMC8010095, “Discovery of novel antituberculosis agents among 3-phenyl-5-(1-phenyl-1H-[1,2,3]triazol-4-yl)-[1,2,4]oxadiazole derivatives targeting aminoacyl-tRNA synthetases” (Scientific Reports, 2021).
Values after ≈ are worked out from the molar mass of the structure shown. “Also recorded” adds a separate entry of the source. Read-outs that look alike come from different tables or passages of the source.

Experiments:
M. tuberculosis H37Rv [1] = experiment: microbe, parasite or virus in culture; type: cell-based; details: > 80% reduction in growth, screened at 20, 2 and 0.2 mg/L, 7H9 complete medium; for MIC: Mycobacterium tuberculosis, H37RV, read-out: Growth inhibition cutoff, H37Rv
[2] = molecular target: T1, M. tuberculosis methionyl-tRNA synthetase (MetRS) (Mycobacterium tuberculosis, UniProt P9WFU5); experiment: biochemical; type: biochemical; details: for IC50: mean ± s.d. (n = 3)
T1 construct: made in house; host or cells: Escherichia coli
T1 sequence (P9WFU5 whole entry): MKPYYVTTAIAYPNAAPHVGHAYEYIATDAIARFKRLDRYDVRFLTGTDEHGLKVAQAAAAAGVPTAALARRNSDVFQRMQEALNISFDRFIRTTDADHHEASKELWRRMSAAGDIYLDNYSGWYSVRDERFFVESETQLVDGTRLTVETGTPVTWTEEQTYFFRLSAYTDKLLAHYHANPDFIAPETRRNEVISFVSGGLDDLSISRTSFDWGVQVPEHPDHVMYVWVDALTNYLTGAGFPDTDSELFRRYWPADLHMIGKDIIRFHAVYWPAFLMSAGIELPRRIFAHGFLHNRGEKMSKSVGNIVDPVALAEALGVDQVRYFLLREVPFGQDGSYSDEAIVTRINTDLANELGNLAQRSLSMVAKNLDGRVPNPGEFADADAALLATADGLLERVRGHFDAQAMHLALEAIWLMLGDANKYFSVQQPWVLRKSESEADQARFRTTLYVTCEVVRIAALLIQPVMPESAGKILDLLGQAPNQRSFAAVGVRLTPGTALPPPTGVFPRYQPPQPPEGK

[3] = molecular target: T2, M. tuberculosis leucyl-tRNA synthetase (LeuRS) (Mycobacterium tuberculosis, UniProt P9WFV1); experiment: biochemical; type: biochemical
T2 construct: made in house; host or cells: Escherichia coli
T2 sequence (P9WFV1 whole entry): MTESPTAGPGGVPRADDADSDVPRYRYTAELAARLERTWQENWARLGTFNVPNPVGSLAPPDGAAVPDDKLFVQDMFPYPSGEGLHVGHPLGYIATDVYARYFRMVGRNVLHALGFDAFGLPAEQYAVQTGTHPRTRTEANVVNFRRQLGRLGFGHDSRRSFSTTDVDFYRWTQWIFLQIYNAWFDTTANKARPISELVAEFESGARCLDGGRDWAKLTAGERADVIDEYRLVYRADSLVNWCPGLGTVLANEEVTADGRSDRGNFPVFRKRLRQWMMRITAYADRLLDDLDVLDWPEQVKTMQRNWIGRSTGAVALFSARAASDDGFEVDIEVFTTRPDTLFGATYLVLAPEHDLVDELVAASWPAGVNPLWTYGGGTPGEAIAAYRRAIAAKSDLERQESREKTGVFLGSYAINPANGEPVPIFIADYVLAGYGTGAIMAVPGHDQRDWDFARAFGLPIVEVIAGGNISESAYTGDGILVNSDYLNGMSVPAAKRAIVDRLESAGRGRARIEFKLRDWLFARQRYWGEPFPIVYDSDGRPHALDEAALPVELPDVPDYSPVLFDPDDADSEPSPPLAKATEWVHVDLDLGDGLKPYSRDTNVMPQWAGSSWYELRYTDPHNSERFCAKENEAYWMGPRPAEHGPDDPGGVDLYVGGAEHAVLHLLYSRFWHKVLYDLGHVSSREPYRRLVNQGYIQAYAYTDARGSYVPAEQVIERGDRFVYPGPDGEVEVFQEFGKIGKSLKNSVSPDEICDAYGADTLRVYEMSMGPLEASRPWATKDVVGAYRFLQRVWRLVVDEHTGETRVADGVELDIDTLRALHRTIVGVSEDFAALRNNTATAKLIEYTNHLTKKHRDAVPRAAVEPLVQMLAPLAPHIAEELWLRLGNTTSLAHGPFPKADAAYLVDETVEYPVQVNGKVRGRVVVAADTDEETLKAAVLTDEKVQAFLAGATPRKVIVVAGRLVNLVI

[4] = test system: Mycobacterium avium (ATCC 700,891 MAC 101); experiment: microbe, parasite or virus in culture; type: cell-based; details: > 80% reduction in growth, screened at 20, 2 and 0.2 mg/L, 7H9 complete medium; for MIC: Mycobacterium avium, ATCC700, read-out: Growth inhibition cutoff, M. avium 700,891 (MAC 101)
[5] = test system: Mycobacterium abscessus (ATCC 19,977); experiment: microbe, parasite or virus in culture; type: cell-based; details: > 80% reduction in growth, screened at 20, 2 and 0.2 mg/L, 7H9 complete medium; for MIC: Mycobacteroides abscessus, ATCC19, read-out: Growth inhibition cutoff, M. abscessus 19,977
[6] = molecular target: T1, M. tuberculosis methionyl-tRNA synthetase (MetRS); set-up: method as in PMID 31691918; details: from the previous article ref 22; cited from earlier work
M. tuberculosis = test system: M. tuberculosis; set-up: method as in PMID 31691918; details: earlier identified hit; cited from earlier work
[7] = molecular target: T2, M. tuberculosis leucyl-tRNA synthetase (LeuRS); set-up: method as in PMID 31691918; details: from the previous article ref 22; cited from earlier work
[8] = test system: HEK293 (human embryonic kidney 293); experiment: MTT cytotoxicity assay, HEK293; type: cell-based; details: 3.125 µM to 50 µM
Experimental: (§1) We have tested compound 27 for cytotoxicity toward human cell lines HEK293 (human embryonic kidney 293) and HepG2 (human hepatocellular carcinoma cell line) using standard MTT assay.
(§2) Compound cytotoxicity was determined by standard MTT assay[37] using human embryonic kidney 293 (HEK293) and human hepatocellular carcinoma (HepG2) cell lines according to the method described previously. HEK 293 cell line was obtained from the Russian Cell Culture Collection (Institute of Cytology of the Russian Academy of Science, St.Petersburg, Russia) and HepG2 – from the Bank of Cell Lines from human and animal tissue (R. E. Kavetsky Institute of Experimental Pathology, Oncology and Radiobiology, NAS of Ukraine, Kyiv, Ukraine).

[9] = MTT cytotoxicity assay, HEK293; type: cell-based, human; details: human, hek293 cells, read-out: CC50, concentration to cause 50% cytotoxicity
Experimental: as §1, §2

M. tuberculosis H37Rv [10] = experiment: microbe, parasite or virus in culture; type: cell-based, Mycobacterium tuberculosis; details: read-out: 2-week MIC
[11] = MTT cytotoxicity assay, HepG2; type: cell-based, human; details: human, hepg2 cells, read-out: CC50, concentration to cause 50% cytotoxicity
Experimental: as §1, §2

[12] = test system: HepG2 (human hepatocellular carcinoma cell line); experiment: MTT cytotoxicity assay, HepG2; type: cell-based; details: 3.125 µM to 50 µM
Experimental: as §1, §2

mycobacterial LeuRS = test system: mycobacterial LeuRS; set-up: method as in PMID 28953378; details: cited from earlier work
tuberculosis = test system: tuberculosis; set-up: method as in PMID 28953378; details: cited from earlier work
[13] = test system: human mitochondrial LeuRS; set-up: method as in PMID 28953378; details: cited from earlier work
human cytoplasmic LeuRS = test system: human cytoplasmic LeuRS; set-up: method as in PMID 28953378; details: cited from earlier work
[14] = test system: Staphylococcus aureus MetRS; set-up: method as in PMID 19015366; details: S. aureus MetRS versus human mitochondrial MetRS; cited from earlier work
[15] = recombinant enzyme, mean ± spread (n in brackets), negative = activation

Structure (SMILES) | Growth inhibition cutoff, H37Rv (M. tuberculosis H37Rv [1]) | MetRS inhibition activity, % [2, 15] | LeuRS inhibition activity, % [3, 15] | Growth inhibition cutoff, M. avium 700,891 (MAC 101) [4] | Growth inhibition cutoff, M. abscessus 19,977 [5] | further results
Nc1c(-c2nc(-c3ccc(F)cc3)no2)nnn1-c1ccc(F)cc1 [Compound 12] | > 20 mg/L | 52 ± 6 (2) % | 3 ± 7 (2) % | > 20 mg/L | > 20 mg/L | 
COc1ccc(-n2nnc(-c3nc(-c4ccc(F)cc4)no3)c2N)cc1 [Compound 13] |  |  |  |  |  | MIC (M. tuberculosis H37Rv [1]): > 20 µg/mL; MetRS inhibition activity, % [2]: 36 ± 5 (2) %; IC50 [2]: 122 ± 26 µM; LeuRS inhibition activity, % [3]: 79 ± 7 (2) %; IC50 ([3]; mean ± s.d. (n = 3)): 263.5 ± 0.7 µM; MIC [4]: > 20 µg/mL; MIC [5]: > 20 µg/mL
CCc1ccc(-n2nnc(-c3nc(-c4ccc(F)cc4)no3)c2N)cc1 [Compound 14] | > 20 mg/L | 41 ± 10 (3) % | 31 ± 7 (2) % | > 20 mg/L | > 20 mg/L | 
COc1ccc(-n2nnc(-c3nc(-c4ccc(F)cc4)no3)c2N)cc1Cl [Compound 17, 3-(3-chloro-4-methoxy-phenyl)-5-[3-(4-fluoro-phenyl)-[1,2,4]oxadiazol-5-yl]-3H-[1,2,3]triazol-4-ylamine] | > 20 mg/L | 77 ± 3 (2) % | 51 ± 28 (2) % | > 20 mg/L | > 20 mg/L | IC50 [6]: 13.8 µM; antibacterial activity toward M. tuberculosis (M. tuberculosis): does not have antibacterial activity; IC50 [7]: 13 µM
Cc1cccc(-n2nnc(-c3nc(-c4ccc(F)cc4)no3)c2N)c1 [Compound 18] | > 20 mg/L | 26 ± 20 (2) % | 13 ± 11 (2) % | > 20 mg/L | > 20 mg/L | 
COc1cccc(-n2nnc(-c3nc(-c4ccc(F)cc4)no3)c2N)c1 [Compound 20] | > 20 mg/L | 37 ± 17 (3) % | 29 ± 25 (2) % | > 20 mg/L | > 20 mg/L | 
Nc1c(-c2nc(-c3ccc(F)cc3)no2)nnn1-c1ccccc1F [Compound 23] | > 20 mg/L | 7 ± 13 (2) % | 5 ± 7 (2) % | > 20 mg/L | > 20 mg/L | 
COc1ccc(Cl)cc1-n1nnc(-c2nc(-c3ccc(F)cc3)no2)c1N [Compound 27] |  |  |  |  |  | MIC (M. tuberculosis H37Rv [1]): > 20 µg/mL; cytotoxicity / effect on cell viability [8]: did not affect cell viability; also recorded: not cytotoxic; CC50 [9]: > 50 µM; MetRS inhibition activity, % [2]: 57 ± 11 (3) %; IC50 [2]: 148 ± 33.2 µM; MIC (M. tuberculosis H37Rv [10]; Mycobacterium tuberculosis, H37RV, 336 h): 25 µM (≈ 9.67 µg/mL); MIC (M. tuberculosis H37Rv [10]): > 50 µM; LeuRS inhibition activity, % [3]: 14 ± 12 (2) %; CC50 [11]: > 50 µM; cytotoxicity / effect on cell viability [12]: did not affect cell viability; also recorded: not cytotoxic; MIC [4]: > 20 µg/mL; MIC [5]: > 20 µg/mL
Nc1c(-c2nc(-c3ccc(Cl)cc3)no2)nnn1-c1ccc(Br)cc1F [Compound 31] | > 20 mg/L | 70 ± 19 (2) % | 15 ± 11 (2) % | > 20 mg/L | > 20 mg/L | 
CCOc1ccc(-c2noc(-c3nnn(-c4ccccc4Cl)c3N)n2)cc1 [Compound 40] | > 20 mg/L | 22 ± 14 (2) % | 36 ± 16 (3) % | > 20 mg/L | > 20 mg/L | 
NC[C@H]1OB(O)c2c(OCCO)ccc(Cl)c21 [GSK656, (S)-3-(Aminomethyl)-4-chloro-7-(2-hydroxyethoxy) benzo [c][1, 2] oxaborol-1 (3 H)-ol] |  |  |  |  |  | IC50 (mycobacterial LeuRS): 0.2 µM; efficacy in an animal model of tuberculosis (tuberculosis): effective; IC50 [13]: > 300 µM; IC50 (human cytoplasmic LeuRS): > 300 µM
C=C(F)c1sc(CNCCCNc2cc(O)c3ccccc3n2)c(C)c1Br [REP8839] |  |  |  |  |  | affinity for the bacterial enzyme relative to human mitochondrial MetRS [14]: 1000 fold
